Measured values taken from patent publication US20230089867A1, “CYCLIC PENTAMER COMPOUNDS AS PROPROTEIN CONVERTASE SUBTILISIN/KEXIN TYPE 9 (PCSK9) INHIBITORS FOR THE TREATMENT OF METABOLIC DISORDER” (Novartis AG, priority 2018, published 2023).
pIC50: −log10 of the molar value.

Target: human PCSK9 (Homo sapiens, UniProt Q8NBP7)
Assay: PCSK9 ligand binding TR-FRET assay (interference with binding of human PCSK9 to human LDLR)
Settings: for Max % inhibition: PCSK9 FRET assay, efficacy (Amax), 100% = 1 uM unlabeled human PCSK9, 0% = DMSO; for pIC50: TR-FRET, human PCSK9 Alexa Fluor 647 / human LDLR extracellular domain-Europium Kryptate, read-out: PCSK9 FRET Assay IC50
Outline: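 Threefold compound dilutions were pre-incubated 30 min with PCSK9, after which 4 nM Europium Kryptate-tagged human LDLR ectodomain was added for a further 2 h.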

Chain of human PCSK9 (Q8NBP7 153-692): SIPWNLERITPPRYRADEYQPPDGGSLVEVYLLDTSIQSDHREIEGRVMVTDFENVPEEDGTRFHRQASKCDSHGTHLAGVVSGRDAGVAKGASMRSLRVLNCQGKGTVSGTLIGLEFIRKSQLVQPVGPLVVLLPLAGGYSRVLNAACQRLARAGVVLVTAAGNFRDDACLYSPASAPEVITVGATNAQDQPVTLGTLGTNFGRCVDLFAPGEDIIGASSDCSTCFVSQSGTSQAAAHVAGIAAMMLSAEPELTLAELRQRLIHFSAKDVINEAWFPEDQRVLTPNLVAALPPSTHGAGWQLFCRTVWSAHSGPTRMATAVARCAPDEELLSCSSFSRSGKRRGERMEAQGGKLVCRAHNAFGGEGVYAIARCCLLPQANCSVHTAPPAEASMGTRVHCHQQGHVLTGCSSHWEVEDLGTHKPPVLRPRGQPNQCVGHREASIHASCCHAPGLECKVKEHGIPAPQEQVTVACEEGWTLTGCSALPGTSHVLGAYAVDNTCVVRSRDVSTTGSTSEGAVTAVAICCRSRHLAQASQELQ
Chain of human PCSK9 (Q8NBP7 31-152 partner limits assumed): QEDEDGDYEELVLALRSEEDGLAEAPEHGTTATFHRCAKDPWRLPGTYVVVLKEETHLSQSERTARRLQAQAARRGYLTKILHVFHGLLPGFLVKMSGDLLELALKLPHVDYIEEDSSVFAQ

| SMILES | Max % inhibition [%] | pIC50 |
| --- | --- | --- |
| COC[C@@H]1NC(=O)[C@H](C)N(Cc2ccc(Cl)cc2Oc2ccc(-c3cnc4n3CCN(C(=O)[C@H]3CCOC3)C4)cc2)C(=O)C[C@@H](Cc2ccccc2)C(=O)N(C)[C@@H](C)CNC(=O)C[C@H](Cc2ccc(Cl)cc2)N(C)C1=O [Compound 162, (2S,5S,8S,13S,16R)-16-benzyl-1-(4-chloro-2-(4-(7-((S)-tetrahydrofuran-3-carbonyl)-5,6,7,8-tetrahydroimidazo[1,2-a]pyrazin-3-yl)phenoxy)benzyl)-8-(4-chlorobenzyl)-5-(methoxymethyl)-2,7,13,14-tetramethyl-1,4,7,11,14-pentaazacyclooctadecane-3,6,10,15,18-pentaone] | 91.41 | 8.54 |
| COC[C@@H]1NC(=O)[C@H](C)N(Cc2ccc(Cl)cc2Oc2ccc(-c3cnc4n3CC[N+]3(CCCC3)C4)cc2)C(=O)C[C@@H](Cc2ccccc2)C(=O)N(C)[C@@H](C)CNC(=O)C[C@H](Cc2ccc(Cl)cc2)N(C)C1=O.Cl.[Cl-] [Compound 249, 3-(4-(2-(((2S,5S,8S,13S,16R)-16-benzyl-8-(4-chlorobenzyl)-5-(methoxymethyl)-2,7,13,14-tetramethyl-3,6,10,15,18-pentaoxo-1,4,7,11,14-pentaazacyclooctadecan-1-yl)methyl)-5-chlorophenoxy)phenyl)-5,6-dihydro-8H-spiro[imidazo[1,2-a]pyrazine-7,1′-pyrrolidin]-7-ium chloride hydrochloride] | 98.36 | 8.64 |
| COC[C@@H]1NC(=O)[C@H](C)N(Cc2c(OC)cccc2Oc2ccc(-c3cnc(CN(C)C)n3C)cc2)C(=O)C[C@@H](Cc2ccccc2)C(=O)N(C)[C@@H](C)CNC(=O)C[C@H](Cc2ccc(Cl)cc2)N(C)C1=O [Compound 154, (2S,5S,8S,13S,16R)-16-benzyl-8-(4-chlorobenzyl)-1-(2-(4-(2-((dimethylamino)methyl)-1-methyl-1H-imidazol-5-yl)phenoxy)-6-methoxybenzyl)-5-(methoxymethyl)-2,7,13,14-tetramethyl-1,4,7,11,14-pentaazacyclooctadecane-3,6,10,15,18-pentaone] | 80.05 | 8.29 |
| COC[C@@H]1NC(=O)[C@H](C)N(Cc2ccc(Cl)cc2Oc2ccc(-c3cnc4c(CN5CCCC5)cccn34)cc2)C(=O)C[C@@H](Cc2ccccc2)C(=O)N(C)[C@@H](C)CNC(=O)C[C@H](Cc2ccc(Cl)cc2)N(C)C1=O [Compound 302] | 54.00 | 8.46 |
| COC[C@@H]1NC(=O)[C@H](CC(=O)OC(C)(C)C)N(Cc2ccc(Cl)cc2Oc2ccc(-c3cnc(CN(C)C)n3C)cc2)C(=O)C[C@@H](Cc2ccccc2)C(=O)N(C)[C@@H](C)CNC(=O)C[C@H](Cc2ccc(Cl)cc2)N(C)C1=O [Compound 174, tert-butyl 2-((2S,5S,8S,13S,16R)-16-benzyl-1-(4-chloro-2-(4-(2-((dimethylamino)methyl)-1-methyl-1H-imidazol-5-yl)phenoxy)benzyl)-8-(4-chlorobenzyl)-5-(methoxymethyl)-7,13,14-trimethyl-3,6,10,15,18-pentaoxo-1,4,7,11,14-pentaazacyclooctadecan-2-yl)acetate] | 102.02 | 7.94 |
| COC[C@@H]1NC(=O)[C@H](C)N(Cc2ccc(Cl)cc2Oc2ccc(-c3cnc(CN4CCCC4)n3C)cc2)C(=O)C[C@@H](Cc2ccccc2)C(=O)N(C)[C@@H](C)CNC(=O)C[C@H](Cc2ccc(Cl)cc2)N(C)C1=O [Compound 138, (2S,5S,8S,13S,16R)-16-benzyl-1-(4-chloro-2-(4-(1-methyl-2-(pyrrolidin-1-ylmethyl)-1H-imidazol-5-yl)phenoxy)benzyl)-8-(4-chlorobenzyl)-5-(methoxymethyl)-2,7,13,14-tetramethyl-1,4,7,11,14-pentaazacyclooctadecane-3,6,10,15,18-pentaone] | 98.02 | 8.82 |
| COC[C@@H]1NC(=O)[C@H](C)N(Cc2ccc(Cl)cc2Oc2ccc(-c3cnc(CN4CCCC4)n3C)cc2)C(=O)C[C@@H](Cc2cccc(F)c2F)C(=O)N(C)[C@@H](C)CNC(=O)C[C@H](Cc2ccc(Cl)cc2)N(C)C1=O [Compound 67, (2S,5S,8S,13S,16R)-1-(4-chloro-2-(4-(1-methyl-2-(pyrrolidin-1-ylmethyl)-1H-imidazol-5-yl)phenoxy)benzyl)-8-(4-chlorobenzyl)-16-(2,3-difluorobenzyl)-5-(methoxymethyl)-2,7,13,14-tetramethyl-1,4,7,11,14-pentaazacyclooctadecane-3,6,10,15,18-pentaone] | 96.63 | 9.22 |
| COC[C@@H]1NC(=O)[C@H](C)N(Cc2ccc(Cl)cc2Oc2ccc(-c3cnc(CN(C)C)n3C)cc2)C(=O)CC(Cn2ccccc2=O)C(=O)N(C)[C@H]2CCCC[C@@H]2NC(=O)C[C@H](Cc2ccc(Cl)cc2)N(C)C1=O (stereo partly drawn) [Compound 275, (4S,7S,10S,16aS,20aS)-11-(4-chloro-2-(4-(2-((dimethylamino)methyl)-1-methyl-1H-imidazol-5-yl)phenoxy)benzyl)-4-(4-chlorobenzyl)-7-(methoxymethyl)-5,10,16-trimethyl-14-((2-oxopyridin-1(2H)-yl)methyl)hexadecahydrobenzo[l][1,4,7,11,14]pentaazacyclooctadecine-2,6,9,12,15(3H)-pentaone] | 102.47 | 9.10 |
| C=Cc1ncc(-c2ccc(Oc3cc(Cl)ccc3CN3C(=O)C[C@@H](Cc4ccccc4)C(=O)N(C)[C@@H](C)CNC(=O)C[C@H](Cc4ccc(Cl)cc4)N(C)C(=O)[C@H](COC)NC(=O)[C@@H]3C)cc2)n1C [Compound 282, (2S,5S,8S,13S,16R)-16-benzyl-1-(4-chloro-2-(4-(1-methyl-2-vinyl-1H-imidazol-5-yl)phenoxy)benzyl)-8-(4-chlorobenzyl)-5-(methoxymethyl)-2,7,13,14-tetramethyl-1,4,7,11,14-pentaazacyclooctadecane-3,6,10,15,18-pentaone] | 60.78 | 8.21 |
| COC[C@@H]1NC(=O)[C@H](C)N(Cc2ccc(Cl)cc2Oc2ccc(-c3cnc(CN(C)C)n3C)cc2)C(=O)CC2(CC2)C(=O)N(C)[C@@H](C)CNC(=O)C[C@H](Cc2ccc(Cl)cc2)N(C)C1=O [Compound 201, (6S,11S,14S,17S)-18-(4-chloro-2-(4-(2-((dimethylamino)methyl)-1-methyl-1H-imidazol-5-yl)phenoxy)benzyl)-11-(4-chlorobenzyl)-14-(methoxymethyl)-5,6,12,17-tetramethyl-5,8,12,15,18-pentaazaspiro[2.17]icosane-4,9,13,16,19-pentaone] | 72.22 | 6.36 |
| COC[C@@H]1NC(=O)[C@H](C)N(Cc2ccc(Cl)cc2Oc2cccc(C(=O)NC3CCNCC3)c2)C(=O)C[C@@H](Cc2ccccc2)C(=O)N(C)[C@@H](C)CNC(=O)C[C@H](Cc2ccc(Cl)cc2)N(C)C1=O [Compound 113, 3-(2-(((2S,5S,8S,13S,16R)-16-benzyl-8-(4-chlorobenzyl)-5-(methoxymethyl)-2,7,13,14-tetramethyl-3,6,10,15,18-pentaoxo-1,4,7,11,14-pentaazacyclooctadecan-1-yl)methyl)-5-chlorophenoxy)-N-(piperidin-4-yl)benzamide] | 53.35 | 6.52 |
| COCCN(C)C(=O)C[C@H]1C(=O)N[C@@H](COC)C(=O)N(C)[C@@H](Cc2ccc(Cl)cc2)CC(=O)N[C@H]2CCCC[C@@H]2N(C)C(=O)[C@H](Cc2ccccc2)CC(=O)N1Cc1ccc(Cl)cc1Oc1ccc(-c2cnc(CN(C)C)n2C)cc1 [Compound 239, 2-((4S,7S,10S,14R,16aS,20aS)-14-benzyl-11-(4-chloro-2-(4-(2-((dimethylamino)methyl)-1-methyl-1H-imidazol-5-yl)phenoxy)benzyl)-4-(4-chlorobenzyl)-7-(methoxymethyl)-5,16-dimethyl-2,6,9,12,15-pentaoxodocosahydrobenzo[l][1,4,7,11,14]pentaazacyclooctadecin-10-yl)-N-(2-methoxyethyl)-N-methylacetamide] | 106.17 | 8.89 |
| COC[C@@H]1NC(=O)[C@H](C)N(Cc2ccc(Cl)cc2Oc2ccc(-c3cnc(CN(C)C)n3C)cc2)C(=O)C[C@@H](C)C(=O)N(C)[C@@H](CC(C)C)CNC(=O)C[C@H](Cc2ccc(Cl)cc2)N(C)C1=O [Compound 255, (5S,8S,13S,16R)-1-(4-chloro-2-(4-(2-((dimethylamino)methyl)-1-methyl-1H-imidazol-5-yl)phenoxy)benzyl)-8-(4-chlorobenzyl)-13-isobutyl-5-(methoxymethyl)-2,7,14,16-tetramethyl-1,4,7,11,14-pentaazacyclooctadecane-3,6,10,15,18-pentaone] | 64.95 | 7.71 |
| COC[C@@H]1NC(=O)[C@H](C)N(Cc2ccc(Cl)cc2Oc2ccc(-c3cnc(CN(C)C)n3C)cc2)C(=O)C[C@@H](CC(F)=C(F)F)C(=O)N(C)[C@H]2CCCC[C@@H]2NC(=O)C[C@H](Cc2ccc(Cl)cc2)N(C)C1=O [Compound 96, (4S,7S,10S,14S,16aS,20aS)-11-(4-chloro-2-(4-(2-((dimethylamino)methyl)-1-methyl-1H-imidazol-5-yl)phenoxy)benzyl)-4-(4-chlorobenzyl)-7-(methoxymethyl)-5,10,16-trimethyl-14-(2,3,3-trifluoroallyl)hexadecahydrobenzo[l][1,4,7,11,14]pentaazacyclooctadecine-2,6,9,12,15(3H)-pentaone] | 78.14 | 6.52 |
| COC[C@@H]1NC(=O)[C@H](C)N(Cc2ccc(Cl)cc2Oc2ccc(-c3cnc(CN(C)C)n3C)cc2)C(=O)C[C@@H](Cc2ccccc2)C(=O)N(C)[C@H]2CCCC[C@@H]2NC(=O)C[C@H](Cc2ccc(Cl)cc2)N(C)C1=O [Compound 145, (4S,7S,10S,14R,16aS,20aS)-14-benzyl-11-(4-chloro-2-(4-(2-((dimethylamino)methyl)-1-methyl-1H-imidazol-5-yl)phenoxy)benzyl)-4-(4-chlorobenzyl)-7-(methoxymethyl)-5,10,16-trimethylhexadecahydrobenzo[l][1,4,7,11,14]pentaazacyclooctadecine-2,6,9,12,15(3H)-pentaone] | 102.40 | 8.96 |
